# Key:
# [1] = biological target: T1, α1G T-type Ca^2+ channel (Homo sapiens, UniProt O43497); assay: T-type Ca2+ channel blocking activity in HEK293 cells, whole-cell patch clamp; format: cell-based; conditions: HEK293 cells expressing α1G; for inhibition at 10 µM: 10 μM (0.1% DMSO), peak current; for IC50: whole-cell patch clamp, -100 mV to -30 mV
# T1 construct: expressed in transfected cells; host or cells: HEK293 cells, G-418 selected
# Method: (§1) In order to evaluate the pharmaceutical effects induced by the compounds of the present invention, the inhibitory effects were examined according to the following procedure. As the first step, those that show more than 50% of inhibition to the calcium channel (α1H) expressed in Xenopus oocytes were screened. For the second step, α1G Ca^2+ channel activities expressed in HEK 293 cells were measured to determine the effective inhibition concentration IC50.
# Measurement of T-type Ca^2+ Channel Blocking Activity of HEK293 Cells by Using Electrophysiological Method
# The culture medium was prepared by adding 10% fetal bovine serum (FBS) and 1% penicillin/streptomycin (v/v) to Dulbecco's modified Eagle's medium (DMEM). The cells were cultured in an incubator having a wet condition of 95% air/5% CO2 at 37° C. The medium was replaced every 3 to 4 days and the cells were sub-cultured every week such that only the cells that expressed α1G T-type Ca^2+ channels could be grown using G-418 (0.5 mg/ml) solution. The cells that were used to measure T-type Ca^2+ channel activity were incubated on a cover slip coated by poly-L-lysine (0.5 mg/ml) every time they were sub-cultured and then recorded after 2 to 3 days. T-type Ca^2+ channel currents at the single-cell level were determined by the electrophysiological whole-cells patch clamp technique using EPC-9 amplifier (HEKA, German). Extracellular solution of NaCl 140 mM, CaCl2 2 mM, HEPES 10 mM (pH 7.4), and intracellular solution of KCl 130 mM, HEPES 10 mM, EGTA 11 mM, MgATP 5 mM (pH 7.4) were used for T-type Ca^2+ channel blocking activity. As the low voltage-activated T-type Ca^2+ channel activity protocol, a fine glass electrode of 3-4 MΩ resistance containing the above-prepared intracellular solution was inserted into a single cell to become the whole-cell recording mode, followed by fixing the potential of the cell membrane at −100 mV and measuring the inward current of the T-type Ca^2+ channel activity when […] at −30 mV (50 ms duration) every 15 seconds. Each compound was dissolved in 100% dimethylsulfoxide (DMSO) to prepare 10 mM stock solution, and then the effect of T-type Ca^2+ channel current at 1,000 fold diluted concentration of 10 μM (including 0.1% DMSO) was initially measured before IC50 values were determined by testing the effects at the concentration range for the IC50 measurement (in general, 0.1-100 μM). Specifically, cells were treated with each compound along with the extracellular solution until T-type Ca^2+ channel currents were stabilized under whole-cell voltage-clamp conditions and the inhibition level of the peak current due to the compound was calculated and expressed in percentage.
# [2] = biological target: T2, calcium channel (α1H) (Homo sapiens, UniProt O95180); assay: Inhibition of calcium channel (α1H) expressed in Xenopus oocytes (first-step screen); format: cell-based; conditions: read-out: % Inhibition in oocyte (100 μM)
# T2 construct: expressed in transfected cells; host or cells: Xenopus oocytes
# Method: as §1
# T1 sequence (O43497 whole entry): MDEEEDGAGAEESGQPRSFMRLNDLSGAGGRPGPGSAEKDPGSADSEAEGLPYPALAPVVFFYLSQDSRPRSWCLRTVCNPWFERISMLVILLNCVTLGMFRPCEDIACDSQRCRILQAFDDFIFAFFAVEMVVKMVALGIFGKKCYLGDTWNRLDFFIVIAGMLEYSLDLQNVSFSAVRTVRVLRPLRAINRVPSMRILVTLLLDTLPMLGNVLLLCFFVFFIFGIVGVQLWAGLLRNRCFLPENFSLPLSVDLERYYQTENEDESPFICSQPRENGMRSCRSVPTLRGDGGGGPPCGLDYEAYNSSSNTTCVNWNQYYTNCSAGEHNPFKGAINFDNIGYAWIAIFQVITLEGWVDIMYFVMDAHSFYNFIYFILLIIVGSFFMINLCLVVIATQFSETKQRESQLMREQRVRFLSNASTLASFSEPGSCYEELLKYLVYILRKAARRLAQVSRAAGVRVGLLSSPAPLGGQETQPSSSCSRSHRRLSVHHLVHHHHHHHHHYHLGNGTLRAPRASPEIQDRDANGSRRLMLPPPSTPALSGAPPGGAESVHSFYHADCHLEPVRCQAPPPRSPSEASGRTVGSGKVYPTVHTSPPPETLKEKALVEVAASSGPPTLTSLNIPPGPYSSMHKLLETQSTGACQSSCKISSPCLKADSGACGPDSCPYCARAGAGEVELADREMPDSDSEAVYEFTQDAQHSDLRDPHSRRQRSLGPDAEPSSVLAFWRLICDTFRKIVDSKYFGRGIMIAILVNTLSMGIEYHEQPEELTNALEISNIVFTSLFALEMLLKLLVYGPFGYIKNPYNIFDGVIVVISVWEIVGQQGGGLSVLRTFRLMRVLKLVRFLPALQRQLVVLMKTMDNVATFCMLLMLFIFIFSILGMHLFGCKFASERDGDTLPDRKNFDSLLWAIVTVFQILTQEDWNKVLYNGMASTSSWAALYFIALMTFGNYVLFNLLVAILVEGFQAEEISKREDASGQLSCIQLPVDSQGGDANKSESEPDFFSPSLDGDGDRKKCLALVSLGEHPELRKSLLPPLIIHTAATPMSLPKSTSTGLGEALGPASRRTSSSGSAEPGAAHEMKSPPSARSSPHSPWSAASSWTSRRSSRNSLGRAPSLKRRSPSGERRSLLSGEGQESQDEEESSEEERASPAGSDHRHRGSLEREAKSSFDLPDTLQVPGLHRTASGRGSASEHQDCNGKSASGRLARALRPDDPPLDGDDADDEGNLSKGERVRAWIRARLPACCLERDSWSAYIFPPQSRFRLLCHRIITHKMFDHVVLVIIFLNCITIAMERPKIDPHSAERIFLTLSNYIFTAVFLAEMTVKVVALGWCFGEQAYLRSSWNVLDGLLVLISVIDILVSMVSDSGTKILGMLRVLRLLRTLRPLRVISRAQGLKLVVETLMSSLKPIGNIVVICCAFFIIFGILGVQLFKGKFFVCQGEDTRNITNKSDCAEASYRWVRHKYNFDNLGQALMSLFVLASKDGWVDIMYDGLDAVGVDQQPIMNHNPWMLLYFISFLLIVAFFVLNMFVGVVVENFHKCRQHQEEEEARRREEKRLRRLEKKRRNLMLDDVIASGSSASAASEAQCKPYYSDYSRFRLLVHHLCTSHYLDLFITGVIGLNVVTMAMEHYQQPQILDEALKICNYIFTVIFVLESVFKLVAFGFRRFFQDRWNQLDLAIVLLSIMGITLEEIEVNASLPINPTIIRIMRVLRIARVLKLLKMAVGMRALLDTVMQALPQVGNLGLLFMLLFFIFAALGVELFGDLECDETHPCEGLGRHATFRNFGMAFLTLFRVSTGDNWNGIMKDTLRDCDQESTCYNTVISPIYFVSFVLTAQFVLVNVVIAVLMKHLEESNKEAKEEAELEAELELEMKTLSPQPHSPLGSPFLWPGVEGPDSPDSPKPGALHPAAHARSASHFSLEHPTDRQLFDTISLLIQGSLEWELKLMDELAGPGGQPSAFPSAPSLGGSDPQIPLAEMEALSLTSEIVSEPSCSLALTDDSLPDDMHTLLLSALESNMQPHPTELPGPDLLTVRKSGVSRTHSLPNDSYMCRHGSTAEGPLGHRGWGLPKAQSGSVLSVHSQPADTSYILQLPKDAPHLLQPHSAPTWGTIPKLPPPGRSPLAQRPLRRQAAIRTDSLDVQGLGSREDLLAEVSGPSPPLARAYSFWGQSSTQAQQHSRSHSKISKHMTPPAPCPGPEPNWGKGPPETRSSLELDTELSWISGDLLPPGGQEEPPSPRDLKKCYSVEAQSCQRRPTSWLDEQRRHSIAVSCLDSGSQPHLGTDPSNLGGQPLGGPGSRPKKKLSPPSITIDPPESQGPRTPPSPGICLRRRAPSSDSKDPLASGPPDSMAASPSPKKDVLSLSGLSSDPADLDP
# T2 sequence (O95180 whole entry): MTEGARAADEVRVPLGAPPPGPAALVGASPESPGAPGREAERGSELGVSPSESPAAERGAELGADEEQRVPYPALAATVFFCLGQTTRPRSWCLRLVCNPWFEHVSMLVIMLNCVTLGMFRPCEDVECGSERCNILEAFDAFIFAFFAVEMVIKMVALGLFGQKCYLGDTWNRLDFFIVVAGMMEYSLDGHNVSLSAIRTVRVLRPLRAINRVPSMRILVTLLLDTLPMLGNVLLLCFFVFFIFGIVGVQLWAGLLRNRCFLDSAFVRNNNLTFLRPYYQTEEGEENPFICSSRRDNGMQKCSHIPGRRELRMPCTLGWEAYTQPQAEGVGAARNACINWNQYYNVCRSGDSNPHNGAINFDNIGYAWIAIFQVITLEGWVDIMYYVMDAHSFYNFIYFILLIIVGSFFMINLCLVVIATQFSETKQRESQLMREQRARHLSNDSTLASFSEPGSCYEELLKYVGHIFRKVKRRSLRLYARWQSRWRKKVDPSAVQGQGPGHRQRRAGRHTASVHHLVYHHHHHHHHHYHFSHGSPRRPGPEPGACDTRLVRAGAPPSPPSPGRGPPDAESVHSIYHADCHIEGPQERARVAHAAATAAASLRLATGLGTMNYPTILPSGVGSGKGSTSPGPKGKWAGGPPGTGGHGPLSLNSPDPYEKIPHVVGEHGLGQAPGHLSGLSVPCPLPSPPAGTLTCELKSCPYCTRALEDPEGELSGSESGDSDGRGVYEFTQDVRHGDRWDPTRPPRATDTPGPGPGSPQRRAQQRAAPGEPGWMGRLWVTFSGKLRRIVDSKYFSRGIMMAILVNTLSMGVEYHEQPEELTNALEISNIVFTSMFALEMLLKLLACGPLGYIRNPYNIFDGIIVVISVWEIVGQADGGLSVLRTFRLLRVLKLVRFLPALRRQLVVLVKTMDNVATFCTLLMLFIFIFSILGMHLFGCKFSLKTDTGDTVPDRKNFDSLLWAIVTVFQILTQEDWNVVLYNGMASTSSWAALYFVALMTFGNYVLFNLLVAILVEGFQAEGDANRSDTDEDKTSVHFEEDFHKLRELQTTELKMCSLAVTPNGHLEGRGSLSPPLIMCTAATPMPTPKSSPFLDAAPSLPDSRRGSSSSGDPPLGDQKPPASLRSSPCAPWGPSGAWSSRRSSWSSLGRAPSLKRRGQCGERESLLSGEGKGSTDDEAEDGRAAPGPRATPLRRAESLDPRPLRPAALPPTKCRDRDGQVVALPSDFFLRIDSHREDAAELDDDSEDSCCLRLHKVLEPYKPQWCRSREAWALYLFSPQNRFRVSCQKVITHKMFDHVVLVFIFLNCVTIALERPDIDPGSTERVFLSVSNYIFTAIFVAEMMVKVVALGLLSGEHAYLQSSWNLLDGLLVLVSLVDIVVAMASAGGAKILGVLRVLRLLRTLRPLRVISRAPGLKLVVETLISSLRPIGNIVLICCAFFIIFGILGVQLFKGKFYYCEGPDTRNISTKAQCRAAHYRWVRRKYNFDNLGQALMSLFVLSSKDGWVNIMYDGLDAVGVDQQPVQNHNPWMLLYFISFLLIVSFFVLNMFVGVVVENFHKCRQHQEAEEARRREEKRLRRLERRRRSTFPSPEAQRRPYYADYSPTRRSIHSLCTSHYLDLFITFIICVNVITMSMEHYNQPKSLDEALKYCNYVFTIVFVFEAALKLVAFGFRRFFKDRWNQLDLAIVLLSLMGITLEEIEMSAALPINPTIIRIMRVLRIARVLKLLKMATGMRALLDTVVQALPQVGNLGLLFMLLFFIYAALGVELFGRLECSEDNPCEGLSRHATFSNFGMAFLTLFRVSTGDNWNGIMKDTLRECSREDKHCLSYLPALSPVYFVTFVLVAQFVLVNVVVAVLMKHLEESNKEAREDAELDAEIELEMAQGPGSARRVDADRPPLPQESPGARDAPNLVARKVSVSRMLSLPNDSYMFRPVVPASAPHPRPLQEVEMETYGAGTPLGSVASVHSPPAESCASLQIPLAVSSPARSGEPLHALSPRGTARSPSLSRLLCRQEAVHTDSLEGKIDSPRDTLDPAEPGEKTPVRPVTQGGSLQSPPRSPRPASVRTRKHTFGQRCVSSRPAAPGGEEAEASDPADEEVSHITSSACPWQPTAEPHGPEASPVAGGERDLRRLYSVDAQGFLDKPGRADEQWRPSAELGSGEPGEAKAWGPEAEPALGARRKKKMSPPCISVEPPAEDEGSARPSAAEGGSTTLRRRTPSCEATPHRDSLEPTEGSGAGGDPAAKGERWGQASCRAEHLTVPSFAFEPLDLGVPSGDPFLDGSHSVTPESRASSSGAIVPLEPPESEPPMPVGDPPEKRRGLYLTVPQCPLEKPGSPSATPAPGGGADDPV
inhibition at 10 µM [1],IC50 [1],inhibition at 100 µM [2],Structure (SMILES)
95.3 ± 1.4%,0.66 ± 0.07 µM,51.3%,"CCCc1cc(CNCCN2CCN(c3ccc([N+](=O)[O-])cc3)CC2)nn1-c1ccccc1 [compound 51, 3-{2-[4-(4-nitrophenyl)piperazin-1-yl]ethyl}aminomethyl-1-phenyl-5-propylpyrazole]"
92.4 ± 1.8%,0.3 ± 0.04 µM,97.8%,"CCCc1cc(CNCCN2CCN(C(c3ccccc3)c3ccccc3)CC2)nn1-c1ccccc1 [compound 83, 3-{2-[4-(4-diphenylmethyl)piperazin-1-yl]ethyl}aminomethyl-1-phenyl-5-propylpyrazole]"
60.5 ± 0.6%,4.42 ± 0.89 µM,24.8%,"CCCc1cc(CNCCN2CCN(C(c3ccccc3)c3ccccc3)CC2)nn1C(C)(C)C [compound 82, 1-t-butyl-3-{2-[4-(4-diphenylmethyl)piperazin-1-yl]ethyl}aminomethyl-5-propyl pyrazole]"
94.5 ± 2.8%,0.3 ± 0.03 µM,80.1%,"CCCc1cc(CNCCN2CCN(c3ccccc3)CC2)nn1-c1ccccc1 [compound 4, 5-propyl-1-phenyl-3-[2-(4-phenylpiperazin-1-yl)ethyl]aminomethylpyrazole]"
79.4 ± 1.6%,1.43 ± 0.15 µM,27.5%,"CCCc1cc(CNCCN2CCN(c3cccc(C)c3C)CC2)nn1C(C)(C)C [compound 15, 1-t-butyl-3-{2-[4-(2,3-dimethylphenyl)piperazin-1-yl]ethyl}aminomethyl-5-propylpyrazole]"
94.8 ± 1.3%,1.06 ± 0.02 µM,74.4%,"CC(C)Cc1cc(CNCCN2CCN(c3ccc([N+](=O)[O-])cc3)CC2)nn1-c1ccccc1 [compound 53, 5-iso-butyl-3-{2-[4-(4-nitrophenyl)piperazin-1-yl]ethyl}aminomethyl-1-phenylpyrazole]"
91.6 ± 0.5%,0.9 ± 0.07 µM,67.8%,"CCCc1cc(CNCCN2CCN(c3ccc(OC)cc3)CC2)nn1-c1ccccc1 [compound 39, 3-{2-[4-(4-methoxyphenyl)piperazin-1-yl]ethyl}aminomethyl-5-propyl-1-phenylpyrazole]"
75.8 ± 1%,0.9 ± 0.09 µM,44.7%,"CCCc1cc(CNCCN2CCN(c3cccc(Cl)c3)CC2)nn1-c1ccccc1 [compound 76, 3-{2-[4-(3-chlorophenyl)piperazin-1-yl]ethyl}aminomethyl-1-phenyl-5-propylpyrazole]"
95.6 ± 1.8%,1.04 ± 0.15 µM,73.3%,"COc1ccc(N2CCN(CCNCc3cc(CC(C)C)n(-c4ccccc4)n3)CC2)cc1 [compound 42, 5-iso-butyl-3-{2-[4-(4-methoxyphenyl)piperazin-1-yl]ethyl}aminomethyl-1-phenyl pyrazole]"
53 ± 1.6%,9.41 ± 0.55 µM,,"COc1ccc(N2CCN(CCNCc3cc(C)n(-c4ccccc4)n3)CC2)cc1 [compound 37, 3-{2-[4-(4-methoxyphenyl)piperazin-1-yl]ethyl}aminomethyl-5-methyl-1-phenylpyrazole]"
92.7 ± 5.7%,1.02 ± 0.1 µM,92%,"Cc1cccc(N2CCN(CCNCc3cc(CC(C)C)n(-c4ccccc4)n3)CC2)c1C [compound 18, 5-iso-butyl-3-{2-[4-(2,3-dimethylphenyl)piperazin-1-yl]ethyl}aminomethyl-1-phenylpyrazole]"
87.9 ± 2.7%,0.82 ± 0.04 µM,77.1%,"CC(C)Cc1cc(CNCCN2CCN(c3ccccc3)CC2)nn1-c1ccccc1 [compound 7, 5-iso-butyl-1-phenyl-3-[2-(4-phenylpiperazin-1-yl)ethyl]aminomethylpyrazole]"
89.9 ± 0.3%,2.19 ± 0.03 µM,40.4%,"CC(C)Cc1cc(CNCCN2CCN(C(c3ccccc3)c3ccccc3)CC2)nn1C(C)(C)C [compound 84, 1-t-butyl-5-iso-butyl-3-{2-[4-(4-diphenylmethyl)piperazin-1-yl]ethyl}aminomethylpyrazole]"
,1.77 ± 0.2 µM,56.4%,"CC(C)Cc1cc(CNCCN2CCN(c3ccc([N+](=O)[O-])cc3)CC2)nn1C(C)(C)C [compound 52, 1-t-butyl-5-iso-butyl-3-{2-[4-(4-nitrophenyl)piperazin-1-yl]ethyl}aminomethylpyrazole]"
93.8 ± 1.4%,0.66 ± 0.04 µM,54.9%,"CCCc1cc(CNCCN2CCN(c3ccccc3F)CC2)nn1-c1ccccc1 [compound 63, 3-{2-[4-(2-fluorophenyl)piperazin-1-yl]ethyl}aminomethyl-1-phenyl-5-propylpyrazole]"
97.4 ± 1.3%,0.57 ± 0.06 µM,95.4%,"Cc1cc(CNCCN2CCN(C(c3ccccc3)c3ccccc3)CC2)nn1-c1ccccc1 [compound 81, 3-{2-[4-(4-diphenylmethyl)piperazin-1-yl]ethyl}aminomethyl-5-methyl-1-phenylpyrazole]"
79.2 ± 3.3%,0.33 ± 0.66 µM,34.5%,"Cc1cc(CNCCN2CCN(C(c3ccccc3)c3ccc(Cl)cc3)CC2)nn1-c1ccccc1 (stereo not shown) [compound 92, 3-{2-[4-(4-chlorobenzhydryl)piperazin-1-yl]ethyl}aminomethyl-5-methyl-1-phenylpyrazole]"
100%,0.65 ± 0.03 µM,92.9%,"CCCc1cc(CNCCN2CCN(C(c3ccccc3)c3ccc(Cl)cc3)CC2)nn1-c1ccccc1 (stereo not shown) [compound 94, 3-{2-[4-(4-chlorobenzhydryl)piperazin-1-yl]ethyl}aminomethyl-1-phenyl-5-propylpyrazole]"
95.9 ± 0.7%,0.58 ± 0.05 µM,74.6%,"CCCc1cc(CNCCN2CCN(c3cccc(C)c3C)CC2)nn1-c1ccccc1 [compound 16, 3-{2-[4-(2,3-dimethylphenyl)piperazin-1-yl]ethyl}aminomethyl-1-phenyl-5-propylpyrazole]"
